Values of other authors, collected in patent publication US6063383A, “Pharmaceutical suppository composites for fever and influenza and method of producing the composites” (priority 1999, dated 2000).

Test system: small rats
Conditions: rat, in vivo

Structure (SMILES): NCCS(=O)(=O)O [taurine]
- spontaneous and pedaling activities: can reduce the combined action of spontaneous activities and pedaling activities
